System: human colon adenocarcinoma cell line LS174T
Test: Subcutaneous LS174T xenograft model, tumor growth inhibition
Parameters: species or system BALB/c nude mice
Settings: mouse, in vivo
Protocol: Example 2 was repeated with the anticancer agent fluorouracil (5-FU) and utilizing a different xen-ograft model involving the human colon adenocarcinoma cell line LS174T.
The suboptimal dose of 5-FU was determined with 75 mg/kg. The anticancer agent was intraperitoneally administered at the suboptimal dose once a week (days 11, 18 and 25 after inoculation). The emulsions were administered intravenously five times a week (Mo-Fr) at a dose of 2 ml/kg.
The results were statistically analyzed.

O=c1[nH]cc(F)c(=O)[nH]1 [Composition 5-FU, fluorouracil]
Suboptimal dose: 75 mg/kg
